Test results as given in ChEMBL document CHEMBL1201862, “PubChem BioAssay data set” (2004).
Active and inactive are the calls of the source.

Experiments:
Interleukin-8 [1] = target: T1, Interleukin-8 (Homo sapiens, UniProt P10145); experiment: SAR analysis of GM-Tri-DAP induced IL-8 secretion in MCF-7/NOD1 cells - Set 2. [Related pubchem assays (depositor defined):AID1575, AID1578, AID2333]; format: functional, cell-based
T1 sequence (P10145 whole entry): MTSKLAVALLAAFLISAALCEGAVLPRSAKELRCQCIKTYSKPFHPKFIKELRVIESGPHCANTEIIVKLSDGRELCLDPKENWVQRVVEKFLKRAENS

Tumor necrosis factor = Tumor necrosis factor (Homo sapiens, UniProt P01375); experiment: analog potency on TNFa NF-kB signaling – cell-based, set 3, SAR follow-up (AID 2801); format: functional
[2] = target: T2, Nucleotide-binding oligomerization domain-containing protein 1 (Homo sapiens, UniProt Q9Y239); experiment: SAR analysis of compounds that inhibit NOD1 - Set 3. [Related pubchem assays (depositor defined):AID1566, AID1575, AID1578, AID1849, AID1852, AID2333, AID2335, AID2466]; format: functional
T2 sequence (Q9Y239 whole entry): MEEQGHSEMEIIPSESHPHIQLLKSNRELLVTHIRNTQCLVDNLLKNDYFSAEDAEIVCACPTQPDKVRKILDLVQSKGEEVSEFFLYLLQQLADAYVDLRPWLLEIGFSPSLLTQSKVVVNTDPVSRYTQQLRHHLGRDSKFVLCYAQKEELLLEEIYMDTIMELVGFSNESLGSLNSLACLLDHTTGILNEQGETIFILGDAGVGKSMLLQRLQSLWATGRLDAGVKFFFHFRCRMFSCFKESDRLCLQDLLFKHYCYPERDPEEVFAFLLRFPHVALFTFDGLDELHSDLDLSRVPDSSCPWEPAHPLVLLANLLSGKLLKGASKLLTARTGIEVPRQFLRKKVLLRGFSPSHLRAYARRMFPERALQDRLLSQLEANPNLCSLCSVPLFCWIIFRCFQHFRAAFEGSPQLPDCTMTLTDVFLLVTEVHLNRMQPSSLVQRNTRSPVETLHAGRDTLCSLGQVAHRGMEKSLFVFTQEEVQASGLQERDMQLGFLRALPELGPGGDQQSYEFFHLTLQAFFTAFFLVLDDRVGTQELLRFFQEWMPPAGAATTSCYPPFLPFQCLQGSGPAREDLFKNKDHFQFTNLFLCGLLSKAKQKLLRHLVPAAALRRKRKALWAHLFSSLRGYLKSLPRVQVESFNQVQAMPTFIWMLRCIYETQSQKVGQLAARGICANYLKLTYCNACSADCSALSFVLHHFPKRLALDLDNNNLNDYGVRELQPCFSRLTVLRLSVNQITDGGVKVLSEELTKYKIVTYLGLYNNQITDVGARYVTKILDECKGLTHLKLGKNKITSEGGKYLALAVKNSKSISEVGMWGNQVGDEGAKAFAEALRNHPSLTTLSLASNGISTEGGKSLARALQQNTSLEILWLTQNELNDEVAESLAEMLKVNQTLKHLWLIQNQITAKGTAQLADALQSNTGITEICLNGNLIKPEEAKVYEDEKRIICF

[3] = target: T2, Nucleotide-binding oligomerization domain-containing protein 1; experiment: SAR analysis of compounds that inhibit NOD1 - Set 2. [Related pubchem assays (depositor defined):AID1566, AID1575, AID1578, AID1849, AID1852, AID2333, AID2335, AID2798]; format: functional
HEK293 [4] = experiment: SAR analysis of compounds that are cytotoxic to HEK293 - Set 3. [Related pubchem assays (depositor defined):AID1575, AID1578, AID1848, AID1849, AID2001, AID2333, AID2334, AID2335, AID2337, AID2469]; format: functional, cell-based; conditions: Homo sapiens
[5] = target: T2, Nucleotide-binding oligomerization domain-containing protein 1; experiment: SAR analysis of NF-kappaB dependent luciferase using DAP as an inducer - Set 2. [Related pubchem assays (depositor defined):AID1566, AID1575, AID1578, AID1579, AID1849, AID1852, AID2264]; format: functional
[6] = target: T3, Nucleotide-binding oligomerization domain-containing protein 2 (Homo sapiens, UniProt Q9HC29); experiment: inhibition of NOD2 signaling – set 2, SAR follow-up (AID 2475); format: functional
Interleukin-8 [7] = target: T1, Interleukin-8; experiment: SAR analysis of Tumor necrosis factor alpha (TNF-alpha) induced IL-8 secretion in MCF-7/NOD1 cells - Set 2. [Related pubchem assays (depositor defined):AID1575, AID2250, AID2260]; format: functional, cell-based
HEK293 [8] = experiment: SAR analysis of compounds that are cytotoxic to HEK293 - Set 2. [Related pubchem assays (depositor defined):AID1575, AID1578, AID1849, AID2001, AID2333, AID2334, AID2335, AID2337, AID2800]; format: functional, cell-based; conditions: Homo sapiens
[9] = target: T3, Nucleotide-binding oligomerization domain-containing protein 2; experiment: inhibition of MDP-driven NOD2 NF-kB reporter – cell-based, set 3, SAR follow-up (AID 2799); format: functional

Measured: IC50

T3 sequence (Q9HC29 whole entry, the tested form may be a part): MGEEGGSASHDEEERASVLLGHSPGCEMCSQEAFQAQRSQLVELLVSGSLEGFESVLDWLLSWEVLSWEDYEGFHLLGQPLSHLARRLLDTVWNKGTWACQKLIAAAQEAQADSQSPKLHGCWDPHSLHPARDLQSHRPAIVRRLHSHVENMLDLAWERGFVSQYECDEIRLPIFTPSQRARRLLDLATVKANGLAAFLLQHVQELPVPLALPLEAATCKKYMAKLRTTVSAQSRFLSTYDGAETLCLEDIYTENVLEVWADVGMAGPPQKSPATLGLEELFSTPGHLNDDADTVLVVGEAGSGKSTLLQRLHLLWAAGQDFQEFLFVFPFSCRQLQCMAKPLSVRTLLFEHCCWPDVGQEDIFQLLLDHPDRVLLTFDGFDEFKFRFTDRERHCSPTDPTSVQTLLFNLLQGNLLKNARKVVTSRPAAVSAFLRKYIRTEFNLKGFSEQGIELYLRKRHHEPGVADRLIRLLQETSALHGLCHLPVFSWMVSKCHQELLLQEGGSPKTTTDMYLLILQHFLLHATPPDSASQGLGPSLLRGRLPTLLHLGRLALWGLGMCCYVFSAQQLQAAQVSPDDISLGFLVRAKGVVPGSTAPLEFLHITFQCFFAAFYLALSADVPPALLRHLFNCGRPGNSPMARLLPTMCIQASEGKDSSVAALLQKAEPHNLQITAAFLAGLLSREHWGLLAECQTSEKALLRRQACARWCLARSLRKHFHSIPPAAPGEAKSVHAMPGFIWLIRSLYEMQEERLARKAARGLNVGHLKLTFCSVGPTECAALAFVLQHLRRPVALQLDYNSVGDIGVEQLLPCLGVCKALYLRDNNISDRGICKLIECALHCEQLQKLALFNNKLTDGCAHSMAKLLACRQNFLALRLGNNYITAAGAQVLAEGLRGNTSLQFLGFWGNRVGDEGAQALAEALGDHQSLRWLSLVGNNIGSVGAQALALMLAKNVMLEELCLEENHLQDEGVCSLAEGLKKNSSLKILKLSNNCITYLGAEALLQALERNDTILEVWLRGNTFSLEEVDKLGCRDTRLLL
Chain of Tumor necrosis factor (P01375 whole entry, the tested form may be a part): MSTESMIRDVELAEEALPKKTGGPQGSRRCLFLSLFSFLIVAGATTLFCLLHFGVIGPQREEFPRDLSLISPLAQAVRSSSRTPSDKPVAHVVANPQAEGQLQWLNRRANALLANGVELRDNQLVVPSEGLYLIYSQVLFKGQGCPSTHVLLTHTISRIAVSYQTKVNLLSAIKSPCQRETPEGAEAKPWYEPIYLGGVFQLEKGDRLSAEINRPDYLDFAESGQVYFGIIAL

CCCn1c(SCCc2ccccc2)nc2c1c(=O)[nH]c(=O)n2C
inactive: Interleukin-8 [1] > 25 µM | Tumor necrosis factor > 20 µM | [2] > 20 µM | [3] > 20 µM | HEK293 [4] > 20 µM | [5] > 25 µM | [6] > 20 µM | Interleukin-8 [7] > 25 µM | HEK293 [8] > 20 µM | [9] > 20 µM
